Source: ChEMBL document CHEMBL1201862, “PubChem BioAssay data set” (2004)
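Tested at 5 concentrations; 48 h exposure; 96-well plates; endpoints linearly interpolated, else capped at highest concentration. GI50 = concentration required for 50% inhibition of growth.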 Active and inactive are the calls of the source. Rule as the data show it: active = GI50 up to about 1.1 µM and inactive = higher.

What was measured:
Assay in all cases: NCI tumour cell line growth inhibition, 48 h
NCI-H522 = test system: NCI-H522
NCI-H460 = test system: NCI-H460
HCT-116 = test system: HCT-116
HT-29 = test system: HT-29
ACHN = test system: ACHN
NCI-H226 = test system: NCI-H226
K562 = test system: K562
OVCAR-5 = test system: OVCAR-5
Hs-578T = test system: Hs-578T
HCC 2998 = test system: HCC 2998
CAKI-1 = test system: CAKI-1
COLO 205 = test system: COLO 205
SF-539 = test system: SF-539
OVCAR-3 = test system: OVCAR-3
NCI-H23 = test system: NCI-H23
SN12C = test system: SN12C
A549 = test system: A549
HOP-62 = test system: HOP-62
A498 = test system: A498
786-0 = test system: 786-0
M14 = test system: M14
HOP-92 = test system: HOP-92
TK-10 = test system: TK-10
U-251 = test system: U-251
OVCAR-4 = test system: OVCAR-4
OVCAR-8 = test system: OVCAR-8
SK-OV-3 = test system: SK-OV-3
MDA-MB-231 = test system: MDA-MB-231
T47D = test system: T47D
IGROV-1 = test system: IGROV-1
PC-3 = test system: PC-3
DU-145 = test system: DU-145
EKVX = test system: EKVX
UACC-257 = test system: UACC-257
HCT-15 = test system: HCT-15
CCRF-CEM = test system: CCRF-CEM
KM12 = test system: KM12
SF-268 = test system: SF-268
MCF7 = test system: MCF7
SNB-19 = test system: SNB-19
SK-MEL-28 = test system: SK-MEL-28
SF-295 = test system: SF-295
MOLT-4 = test system: MOLT-4
LOX IMVI = test system: LOX IMVI
SR = test system: SR
HL-60 = test system: HL-60
SK-MEL-2 = test system: SK-MEL-2
MDA-MB-435 = test system: MDA-MB-435
SNB-75 = test system: SNB-75
UO-31 = test system: UO-31
SW-620 = test system: SW-620
NCI/ADR-RES = test system: NCI/ADR-RES
RPMI-8226 = test system: RPMI-8226
MDA-N = test system: MDA-N
UACC-62 = test system: UACC-62
SK-MEL-5 = test system: SK-MEL-5
RXF 393 = test system: RXF 393

CCOC(=O)c1ccc(Nc2c3c(nc4ccccc24)CCCC3)cc1
GI50 (NCI-H522): 3.62 µM (inactive) | GI50 (NCI-H460): 43.2 µM (inactive) | GI50 (HCT-116): > 34.3 µM (inactive) | GI50 (HT-29): 2.89 µM (inactive) | GI50 (ACHN): > 91.4 µM (inactive) | GI50 (NCI-H226): > 100 µM (inactive) | GI50 (K562): 3.74 µM (inactive) | GI50 (OVCAR-5): > 60 µM (inactive) | GI50 (Hs-578T): 27.5 µM (inactive) | GI50 (HCC 2998): > 56.4 µM (inactive) | GI50 (CAKI-1): 54.5 µM (inactive) | GI50 (COLO 205): > 100 µM (inactive) | GI50 (SF-539): 48.9 µM (inactive) | GI50 (OVCAR-3): > 100 µM (inactive) | GI50 (NCI-H23): > 47.9 µM (inactive) | GI50 (SN12C): > 100 µM (inactive) | GI50 (A549): > 38.6 µM (inactive) | GI50 (HOP-62): 10.6 µM (inactive) | GI50 (A498): 15.3 µM (inactive) | GI50 (786-0): 29.2 µM (inactive) | GI50 (M14): > 34.2 µM (inactive) | GI50 (HOP-92): 18.1 µM (inactive) | GI50 (TK-10): > 74.1 µM (inactive) | GI50 (U-251): 22.9 µM (inactive) | GI50 (OVCAR-4): 46.7 µM (inactive) | GI50 (OVCAR-8): 44.7 µM (inactive) | GI50 (SK-OV-3): > 66.2 µM (inactive) | GI50 (MDA-MB-231): 26.6 µM (inactive) | GI50 (T47D): 8.51 µM (inactive) | GI50 (IGROV-1): 4.91 µM (inactive) | GI50 (PC-3): > 47.5 µM (inactive) | GI50 (DU-145): > 57.9 µM (inactive) | GI50 (EKVX): > 54.2 µM (inactive) | GI50 (UACC-257): > 86.1 µM (inactive) | GI50 (HCT-15): 7.13 µM | GI50 (CCRF-CEM): 14.2 µM (inactive) | GI50 (KM12): 3.54 µM (inactive) | GI50 (SF-268): 76.2 µM (inactive) | GI50 (MCF7): 12 µM (inactive) | GI50 (SNB-19): 41 µM (inactive) | GI50 (SK-MEL-28): > 100 µM (inactive) | GI50 (SF-295): 17.1 µM (inactive) | GI50 (MOLT-4): 3.22 µM (inactive) | GI50 (LOX IMVI): > 21.2 µM (inactive) | GI50 (SR): 25.4 µM (inactive) | GI50 (HL-60): 3.22 µM (inactive) | GI50 (SK-MEL-2): > 86.9 µM (inactive) | GI50 (MDA-MB-435): 1.77 µM (inactive) | GI50 (SNB-75): 6.73 µM (inactive) | GI50 (UO-31): > 34.3 µM (inactive) | GI50 (SW-620): 4.2 µM (inactive) | GI50 (NCI/ADR-RES): > 30.3 µM (inactive) | GI50 (RPMI-8226): > 100 µM (inactive) | GI50 (MDA-N): 1.76 µM (inactive) | GI50 (UACC-62): 30.3 µM (inactive) | GI50 (SK-MEL-5): > 42.5 µM (inactive) | GI50 (RXF 393): 33.9 µM (inactive)
